According to patent publication US6063814A, “Phorbol esters as anti-neoplastic and white blood cell elevating agents” (priority 1997, dated 2000):

Tests used:
mouse skin = conditions: cited from earlier work
[1] = tested on: S180 (Sarcoma 180) tumor cells; test: Tumor growth inhibition in mice injected with S180 (Sarcoma 180) tumor cells; assay type: in vivo, Kwen-Ming mice
Description: Effect of TPA in Mice Injected With S180 (Sarcoma 180) Tumor Cells:
Eight groups of Kwen-Ming mice containing 7 mice per group were used in the following experiment. Two groups were untreated and six groups received the drug.
Each Kwen-Ming mouse was injected with 5×10^6 S180 cells at the under-arm position. After 24 or 72 h, the animals were given TPA i.p. or locally at the tumor site. The injected doses of TPA were 50, 100 and 200 μg/kg/d for 7 days. The animals were sacrificed 24 hrs after the final TPA treatment and the tumors were weighed to calculate the extent of the tumor growth inhibition.

For CCCCCCCCCCCCCC(=O)O[C@@H]1[C@@H](C)[C@@]2(O)[C@@H](C=C(CO)C[C@]3(O)C(=O)C(C)=C[C@@H]23)[C@@H]2C(C)(C)[C@]12OC(C)=O [TPA, Phorbol 12-Myristate-13-Acetate], the “mouse skin cancer promotion” value (mouse skin; Chemsyn product brochure) is given as “extremely potent mouse skin cancer promoter”, the tumor promotion (mouse skin; Merck Index, 11th Edition) is given as “co-carcinogen or tumor promoter” and the “tumor cell differentiation (pathological studies)” value ([1]; after TPA treatment) is given as “the tumor cells were differentiated”. For the same compound, the “inhibition of tumor growth” value ([1]; i.p. 50 μg/kg daily for 7 days) was 41.7%, the “inhibition of tumor growth” value ([1]; i.p. 100 μg/kg daily for 7 days) was 54.8% and the “inhibition of tumor growth” value ([1]; i.p. 200 μg/kg daily for 7 days) was 30.4%. For the same compound, the “inhibition of tumor growth” value ([1]; locally at tumor site, 50 μg/kg daily for 7 days) was 35.5%, the “inhibition of tumor growth” value ([1]; locally at tumor site, 100 μg/kg daily for 7 days) was 49.3% and the “inhibition of tumor growth” value ([1]; locally at tumor site, 200 μg/kg daily for 7 days) was 59.2%.
